Results from the supplement of paper PMC5908809.

Key:
Test in all cases: relative IC50 (inflection point of fitted viability curve, relative to fitted max inhibition); higher = less sensitive
Conditions in all cases: 72 h
[1] = system: normal primary NK cells, pool 1 (3 donors), resting (IL-2 0 ng/mL)
Method: (§1)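 Drug sensitivity and resistance testing: 5 concentrations over a 10,000-fold range, 72 h at 37 °C, viability by CellTiter-Glo normalised to DMSO and benzethonium chloride controls. IC50 is the inflection point of a logistic fit (min fixed at 0, max fitted), so it is relative to the fitted maximal inhibition. Kept only where fitted max inhibition is at least 50%.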

[2] = system: normal primary NK cells, pool 2 (3 donors) (IL-2 2.5 ng/mL)
Method: as §1

IMC-1 (IL-2 20 ng/mL) = system: IMC-1 (IL-2 20 ng/mL)
Method: as §1

KHYG-1 (IL-2 2.5 ng/mL) = system: KHYG-1 (IL-2 2.5 ng/mL)
Method: as §1

NK-92 (IL-2 2.5 ng/mL) = system: NK-92 (IL-2 2.5 ng/mL)
Method: as §1

NKL (IL-2 2.5 ng/mL) = system: NKL (IL-2 2.5 ng/mL)
Method: as §1

YT (IL-2 2.5 ng/mL) = system: YT (IL-2 2.5 ng/mL)
Method: as §1

[3] = system: normal primary NK cells, pool 3 (3 donors) (IL-2 2.5 ng/mL)
Method: as §1

DERL-7 (IL-2 2.5 ng/mL) = system: DERL-7 (IL-2 2.5 ng/mL)
Method: as §1

KAI3 (IL-2 2.5 ng/mL) = system: KAI3 (IL-2 2.5 ng/mL)
Method: as §1

NK-YS (IL-2 2.5 ng/mL) = system: NK-YS (IL-2 2.5 ng/mL)
Method: as §1

SNK-6 (IL-2 2.5 ng/mL) = system: SNK-6 (IL-2 2.5 ng/mL)
Method: as §1

[4] = system: normal primary NK cells, pool 1 (3 donors) (IL-2 2.5 ng/mL)
Method: as §1

SMILES | relative IC50 [1] [µM] | relative IC50 [2] [µM] | relative IC50 (IMC-1 (IL-2 20 ng/mL)) [µM] | relative IC50 (KHYG-1 (IL-2 2.5 ng/mL)) [µM] | relative IC50 (NK-92 (IL-2 2.5 ng/mL)) [µM] | relative IC50 (NKL (IL-2 2.5 ng/mL)) [µM] | relative IC50 (YT (IL-2 2.5 ng/mL)) [µM] | relative IC50 [3] [µM] | relative IC50 (DERL-7 (IL-2 2.5 ng/mL)) [µM] | relative IC50 (KAI3 (IL-2 2.5 ng/mL)) [µM] | relative IC50 (NK-YS (IL-2 2.5 ng/mL)) [µM] | relative IC50 (SNK-6 (IL-2 2.5 ng/mL)) [µM] | relative IC50 [4] [µM]
O=C(O)CC[C@H]1CC[C@@](c2cc(F)ccc2F)(S(=O)(=O)c2ccc(Cl)cc2)CC1 [MK-0752] | > 1 | > 1 |  |  |  |  |  |  |  |  |  |  | 
Cc1cc2c(F)c(Oc3ncnn4cc(OC[C@@H](C)O)c(C)c34)ccc2[nH]1 [Brivanib] |  | > 1 | > 1 | > 1 | > 1 | > 1 | > 1 | > 1 |  |  |  |  | 
COc1cc(OC)c(/C=C/S(=O)(=O)Cc2ccc(OC)c(NCC(=O)O)c2)c(OC)c1 [Rigosertib] | 0.84 |  | 0.0375 | 0.0358 | 0.0536 | 0.043 | 0.0469 |  | 0.0367 | 0.0485 | 0.0404 | 0.0535 | 
C[C@]12O[C@H](C[C@]1(O)CO)n1c3ccccc3c3c4c(c5c6ccccc6n2c5c31)CNC4=O [Lestaurtinib] |  | 0.0215 | 0.0967 | 0.016 | 0.0311 | 0.0281 | 0.0783 | 0.0441 | 0.0286 | 0.0119 | 0.085 | 0.0385 | 0.0209
CO[C@@H](C(=O)N1Cc2[nH]nc(NC(=O)c3ccc(N4CCN(C)CC4)cc3)c2C1)c1ccccc1 [Danusertib] |  |  | 0.312 | 0.493 | 0.337 | 1.38 |  |  | 0.175 | 0.46 | 0.204 | 0.413 | 
CC[C@]1(O)C[C@H]2CN(CCc3c([nH]c4ccccc34)[C@@](C(=O)OC)(c3cc4c(cc3OC)N(C=O)[C@H]3[C@@](O)(C(=O)OC)[C@H](OC(C)=O)[C@]5(CC)C=CCN6CC[C@]43[C@@H]65)C2)C1 [Vincristine] |  |  | 0.00341 | 0.00314 | 0.00988 | 0.0029 | 0.0036 |  | 0.00338 | 0.0079 | 0.00545 | 0.00474 | 
CCN(CC)CCNC(=O)c1c(C)[nH]c(/C=C2\C(=O)Nc3ccc(F)cc32)c1C [Sunitinib] |  |  | > 1 | > 1 | > 1 | > 1 |  |  |  |  |  |  | 
CC/C(=C(\c1ccccc1)c1ccc(OCCN(C)C)cc1)c1ccccc1 [Tamoxifen] | 1.68 | 2.59 |  |  | 2.94 | 1.43 | 2.7 |  | 1.68 | 2.45 |  | 3.7 | 2.06
CC[C@H](C)C(=O)O[C@H]1C[C@@H](C)C=C2C=C[C@H](C)[C@H](CC[C@@H]3C[C@@H](O)CC(=O)O3)[C@H]21 [Lovastatin] |  | > 10 |  |  |  | 3.52 |  | > 10 |  |  | 1.94 |  | 
COC(=O)N[C@@H](C)CNc1nccc(-c2cn(C(C)C)nc2-c2cc(Cl)cc(NS(C)(=O)=O)c2F)n1 [Encorafenib] |  | > 1 |  | 0.0343 |  |  |  | > 1 |  |  |  |  | > 1
C=CCN(/C=C1/C(=O)O[C@H](COC)[C@@]2(C)C1=C(O)C(=O)C1=C2[C@H](OC(C)=O)C[C@]2(C)C(=O)CC[C@@H]12)CC=C [Sonolisib] | 1.63 |  |  |  |  |  |  |  |  |  |  |  | 1.2
Cc1c(CN2CCN(C(=O)[C@H](C)O)CC2)sc2c(N3CCOCC3)nc(-c3cnc(N)nc3)nc12 [Apitolisib] |  | 1.32 |  | 1.6 | 0.145 | 0.492 | 0.622 | 2.31 | 0.204 | 0.457 | 0.599 |  | 0.902
Cc1csc(-c2nnc(Nc3ccc(Oc4ncccc4-c4ccnc(N)n4)cc3)c3ccccc23)c1 [AMG-900] |  | > 1 | 0.123 | 0.0113 | 0.0585 | > 1 |  |  | 0.0111 |  | 0.0054 | 0.0028 | > 1
O=C(Nc1cc(Cl)cc2c1[nH]c1cnccc12)c1cccnc1 [PS-1145] |  |  |  |  |  |  |  |  |  | 1.65 |  |  | 
CO[C@H]1C[C@@H]2CC[C@@H](C)[C@@](O)(O2)C(=O)C(=O)N2CCCC[C@H]2C(=O)O[C@H]([C@H](C)C[C@@H]2CC[C@@H](OCCO)[C@H](OC)C2)CC(=O)[C@H](C)/C=C(\C)[C@@H](O)[C@@H](OC)C(=O)[C@H](C)C[C@H](C)/C=C/C=C/C=C/1C [Everolimus] |  |  | > 0.1 |  |  |  |  | > 0.1 | 0.00094 |  |  |  | 
CC[C@H](CC#N)OC(=O)N[C@@H](C)c1cccc(NC(=O)Nc2ccc(-c3cnco3)c(OC)c2)c1 [AVN944] | 2.17 |  | 0.622 | 0.103 | 0.166 | 0.117 | 0.138 |  | 0.104 | 0.117 | 0.103 | 0.0677 | 
N#Cc1ccc2[nH]c(O)c(-c3ccc(CN4CCOCC4)cn3)c2c1 [AZD-1080] |  |  | 3.18 |  | > 10 |  |  |  | 3.42 |  |  | > 10 | 
Cc1cccc(-c2nn3c(c2-c2ccnc4ccc(C(N)=O)cc24)CCC3)n1 [Galunisertib] |  | > 1 | > 1 |  |  | > 1 |  | > 1 |  |  | > 1 |  | 
CC(C)(C)c1nc(-c2cccc(NS(=O)(=O)c3c(F)cccc3F)c2F)c(-c2ccnc(N)n2)s1 [Dabrafenib] |  | > 2.5 |  | 0.0721 | > 2.5 | > 2.5 |  | > 2.5 |  |  |  |  | 
CN(Cc1cnc2nc(N)nc(N)c2n1)c1ccc(C(=O)N[C@@H](CCC(=O)O)C(=O)O)cc1 [Methotrexate] |  | > 5 | 0.0261 | 0.0178 | 0.0211 | 0.0384 | 0.0137 | > 5 | 0.268 | 0.018 | 0.0191 | 0.00991 | 
Cn1c(=O)n(-c2ccc(C(C)(C)C#N)cc2)c2c3cc(-c4cnc5ccccc5c4)ccc3ncc21 [Dactolisib] |  | 0.0318 | 0.198 | 0.048 | 0.015 | 0.0104 | 0.0409 |  | 0.00968 | 0.0173 | 0.0261 | 0.0405 | 
O=C(NOCCO)c1ccc2cncn2c1Nc1ccc(I)cc1F [GDC-0623] |  |  | > 2.5 | 0.0256 | > 2.5 | 0.0221 |  |  |  |  |  |  | 
CNC(=O)c1ccccc1Sc1ccc2c(/C=C/c3ccccn3)n[nH]c2c1 [Axitinib] |  |  | 2.76 | 0.916 | 1.5 | 0.734 | 1.2 |  | 0.323 | 0.717 | 1.1 | 0.707 | 
CS(=O)(=O)N1CCN(Cc2cc3nc(-c4cccc5[nH]ncc45)nc(N4CCOCC4)c3s2)CC1 [Pictilisib] | 0.694 | 1.95 | > 10 | 2.01 | 0.421 | 0.821 | 1.26 |  | 0.472 | 1.49 | 1.18 |  | 1.12
CCn1c(C(=O)N(C2CC2)C2CC2)cc2c3c(ncn3C)c(Nc3cc(C)n(C)n3)nc21 |  |  |  | 1.82 | 1.98 | 0.797 |  |  | 1.63 | 0.18 |  |  | 
